Patent US20240166651A1, “HETEROCYCLIC DERIVATIVES AS JANUS KINASE INHIBITORS” (CHIESI FARMACEUTICI S.P.A., priority 2021, published 2024)

What was measured:
[1] = test system: IL-2 induced phosphorylation of STAT5 (JAK1/JAK3 activity) in human PBMCs; assay: Cell Based assay PBMC (IL-2 stimulated pSTAT5); conditions: 0.5 h, rh IL-2, 30 min incubation, pSTAT5 ELISA, data displayed as pIC50
Experimental: In addition to enzymatic potency, the effects of the inhibitors against JAK1/JAK3 activity in a cellular assay was characterized against IL-2 induced phosphorylation of STATS level in human peripheral blood mononuclear cells (PBMCs).
PBMC have been isolated from human healthy volunteers. Cells were seeded in wells and treated with compounds and rh IL-2. After 30 min incubation cells were lysed and pSTAT5 determined by PathScan phospho-stats (Tyr694) ELISA (Cell signaling). Inhibitors were tested at 11 consecutive 5-fold dilutions starting from 30 μM (30 μM—3 pM) in duplicate. Calculation of IC50 data, curves and QC analysis were made using
Excel tools and GraphPadPrism software. QC criteria parameters: Z′≥0.35, Hill Slope range 0.5 to 5, S:B >2.

JAK1 kinase = JAK1 kinase (Homo sapiens (Human), UniProt P23458); assay: Biochemical Potency JAK1 (TR-FRET LANCE Ultra kinase assay); conditions: ATP corresponding to Km
Sequence of JAK1 kinase (P23458 whole entry): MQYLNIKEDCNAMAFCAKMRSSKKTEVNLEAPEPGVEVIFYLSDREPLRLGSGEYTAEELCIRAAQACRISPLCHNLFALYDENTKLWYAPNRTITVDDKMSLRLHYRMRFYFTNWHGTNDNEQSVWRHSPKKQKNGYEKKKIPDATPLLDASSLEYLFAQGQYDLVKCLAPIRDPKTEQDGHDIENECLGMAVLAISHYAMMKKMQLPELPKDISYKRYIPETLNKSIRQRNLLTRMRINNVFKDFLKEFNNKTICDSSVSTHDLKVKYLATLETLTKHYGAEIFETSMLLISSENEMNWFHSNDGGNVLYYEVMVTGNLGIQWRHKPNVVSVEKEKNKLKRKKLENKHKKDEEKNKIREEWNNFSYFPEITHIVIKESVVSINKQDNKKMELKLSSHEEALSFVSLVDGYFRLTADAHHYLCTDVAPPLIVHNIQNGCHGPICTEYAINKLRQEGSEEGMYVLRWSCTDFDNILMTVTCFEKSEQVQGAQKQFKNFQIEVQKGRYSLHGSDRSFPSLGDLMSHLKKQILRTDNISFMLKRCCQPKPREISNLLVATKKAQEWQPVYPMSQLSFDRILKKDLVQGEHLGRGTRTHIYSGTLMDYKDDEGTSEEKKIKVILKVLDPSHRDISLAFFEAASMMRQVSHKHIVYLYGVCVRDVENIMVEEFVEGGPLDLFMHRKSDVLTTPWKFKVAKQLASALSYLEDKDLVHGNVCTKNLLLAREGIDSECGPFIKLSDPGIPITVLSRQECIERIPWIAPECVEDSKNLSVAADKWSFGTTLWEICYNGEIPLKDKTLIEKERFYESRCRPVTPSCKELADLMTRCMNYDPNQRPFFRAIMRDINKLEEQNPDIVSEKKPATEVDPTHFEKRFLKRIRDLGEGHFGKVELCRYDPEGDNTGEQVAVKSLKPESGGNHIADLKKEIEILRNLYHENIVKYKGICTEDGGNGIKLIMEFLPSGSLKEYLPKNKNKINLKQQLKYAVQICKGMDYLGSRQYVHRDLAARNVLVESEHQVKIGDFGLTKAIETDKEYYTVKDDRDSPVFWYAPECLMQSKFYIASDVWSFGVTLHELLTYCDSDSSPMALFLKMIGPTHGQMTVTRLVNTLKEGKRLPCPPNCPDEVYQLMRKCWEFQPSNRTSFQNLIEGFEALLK
From the text: The objective of this study was to assess the activity of novel JAK inhibitors measuring the capability of compounds to inhibit JAK1 kinase activity in a biochemical time-resolved fluorescence resonance energy transfer (TR-FRET) LANCE assay. In
LANCE Ultra kinase assay in the presence of JAK1 kinase and ATP (corresponding to Km), the ULight peptide substrate (LANCE Ulight-JAK-1 (Tyr1023) Peptide, Perkin Elmer, TRF0121) was phosphorylated. It was then captured by a Eu-anti-phospho-substrate antibody (LANCE Eu-W1024 Anti-phosphotyrosine (PT66), Perkin Elmer, AD0069), which brought the Eu-chelate donor and ULight acceptor dyes into close proximity. Upon excitation at 320 nm, the Eu-chelate transfers its energy to the ULight dye, resulting in a fluorescent light emission at 665 nm. Inhibitors were tested at 11 consecutive 5-fold dilutions starting from 30 μM (30 μM—3 pM) in duplicate. Calculation of IC50 data, curves and QC analysis were made using Excel tools and GraphPadPrism software. QC criteria parameters: Z′≥0.5, Hill Slope range 0.5 to 5, S:B>2.

N#Cc1ccc(N2CCC(Nc3c(C(N)=O)cnc4ccsc34)C2)cc1F (stereo not drawn) [Example 4, 7-((1-(4-cyano-3-fluorophenyl)pyrrolidin-3-yl)amino)thieno[3,2-b]pyridine-6-carboxamide]
IC50 [1]: 3160 nM | Biochemical Potency JAK 1 (pIC50) (JAK1 kinase): 7

CN(c1ncnc2[nH]ccc12)[C@@H]1CCN(c2ccc(C#N)c(F)c2)C1 [Example 1, (R)-2-fluoro-4-(3-(methyl(7H-pyrrolo[2,3-d]pyrimidin-4-yl)amino)pyrrolidin-1-yl)benzonitrile]
IC50 [1]: 50.1 nM | Biochemical Potency JAK 1 (pIC50) (JAK1 kinase): 8.6

CCOC(=O)c1cnc2ccsc2c1NC1CCN(c2ccc(C#N)c(F)c2)C1 (stereo not drawn) [Example 7, ethyl 7-((1-(4-cyano-3-fluorophenyl)pyrrolidin-3-yl)amino)thieno[3,2-b]pyridine-6-carboxylate]
IC50 [1]: 2510 nM | Biochemical Potency JAK 1 (pIC50) (JAK1 kinase): 6

COC(=O)C(c1ccc(Cl)cc1F)N1CCC(N(C)c2ncnc3[nH]ccc23)C1 (stereo not drawn) [Example 5, methyl 2-(4-chloro-2-fluorophenyl)-2-(3-(methyl(7H-pyrrolo[2,3-d]pyrimidin-4-yl)amino)pyrrolidin-1-yl)acetate]
Biochemical Potency JAK 1 (pIC50) (JAK1 kinase): 7.6

CN(c1ncnc2[nH]ccc12)C1CCN(C(C(=O)O)c2ccc(Cl)cc2F)C1 (stereo not drawn) [Example 6, 2-(4-chloro-2-fluorophenyl)-2-(3-(methyl(7H-pyrrolo[2,3-d]pyrimidin-4-yl)amino)pyrrolidin-1-yl)acetic acid]
Biochemical Potency JAK 1 (pIC50) (JAK1 kinase): 5.3

N#Cc1ccc(N2CCC(Nc3c(C(=O)O)cnc4ccsc34)C2)cc1F (stereo not drawn) [Example 8, 7-((1-(4-cyano-3-fluorophenyl)pyrrolidin-3-yl)amino)thieno[3,2-b]pyridine-6-carboxylic acid]
IC50 [1]: 31600 nM | Biochemical Potency JAK 1 (pIC50) (JAK1 kinase): 5.3

CN(c1ncnc2[nH]ccc12)C1CCN(c2ccc(C#N)nc2)C1 (stereo not drawn) [Example 2, 5-(3-(methyl(7H-pyrrolo[2,3-d]pyrimidin-4-yl)amino)pyrrolidin-1-yl)picolinonitrile]
IC50 [1]: 251 nM | Biochemical Potency JAK 1 (pIC50) (JAK1 kinase): 7.9

CN(c1ncnc2[nH]ccc12)[C@@H]1CCN(c2cc(F)ccc2C#N)C1 [Example 9, (R)-4-fluoro-2-(3-(methyl(7H-pyrrolo[2,3-d]pyrimidin-4-yl)amino)pyrrolidin-1-yl)benzonitrile]
IC50 [1]: 398 nM | Biochemical Potency JAK 1 (pIC50) (JAK1 kinase): 7.6

CN(c1ncnc2[nH]ccc12)[C@@H]1CCN(c2ccc(C(=O)Nc3nccs3)cn2)C1 [Example 3, (R)-6-(3-(methyl(7H-pyrrolo[2,3-d]pyrimidin-4-yl)amino)pyrrolidin-1-yl)-N-(thiazol-2-yl)nicotinamide]
IC50 [1]: 501 nM | Biochemical Potency JAK 1 (pIC50) (JAK1 kinase): 7.7

CN(c1ncnc2[nH]ccc12)[C@@H]1CCN(c2cnc(C#N)nc2)C1 [Example 10, (R)-5-(3-(methyl(7H-pyrrolo[2,3-d]pyrimidin-4-yl)amino)pyrrolidin-1-yl)pyrimidine-2-carbonitrile]
IC50 [1]: 200 nM | Biochemical Potency JAK 1 (pIC50) (JAK1 kinase): 7.9
